Several values for one entry are separate records, joined by “and”; a condition that tells them apart may be missing. Equal entries are not always repeated. Toxic doses and inconclusive results are not listed.
Test system: P388 leukemia ip, CD2F1 mice, survival T/C
Experiment: NCI In Vivo Anticancer Drug Screen. Data for tumor model P388 Leukemia (intraperitoneal) in CD2F1 (CDF1) mice
Details: endpoint: median survival time, higher = longer survival
Outline: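 Mice carrying the transplanted tumor received test compound or vehicle. Survival was recorded in each group, and the value is the treated-group measurement divided by that of the vehicle-treated control group.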

[1] = dose: 12.5 mg/kg/injection, schedule: Q01DX009 (ip), vehicle: saline with Tween-80
[2] = dose: 25.0 mg/kg/injection, schedule: Q01DX009 (ip), vehicle: saline with Tween-80
[3] = dose: 50.0 mg/kg/injection, schedule: Q01DX009 (ip), vehicle: saline with Tween-80
[4] = dose: 50.0 mg/kg/injection, schedule: Q01DX009 (ip), vehicle: saline
[5] = dose: 100.0 mg/kg/injection, schedule: Q01DX009 (ip), vehicle: saline
[6] = dose: 100.0 mg/kg/injection, schedule: Q01DX009 (ip), vehicle: saline with Tween-80
[7] = dose: 200.0 mg/kg/injection, schedule: Q01DX009 (ip), vehicle: saline with Tween-80
[8] = dose: 50.0 mg/kg/injection, schedule: Q04DX003 (ip), vehicle: saline with Tween-80
[9] = dose: 200.0 mg/kg/injection, schedule: Q04DX003 (ip), vehicle: saline with Tween-80
[10] = dose: 50.0 mg/kg/injection, schedule: Q01DX009 (ip), vehicle: Klucel (hydroxypropylcellulose) (HPC)
[11] = dose: 100.0 mg/kg/injection, schedule: Q01DX009 (ip), vehicle: Klucel (hydroxypropylcellulose) (HPC)
[12] = dose: 200.0 mg/kg/injection, schedule: Q01DX009 (ip), vehicle: Klucel (hydroxypropylcellulose) (HPC)
[13] = dose: 50.0 mg/kg/injection, schedule: Q01DX005 (ip), vehicle: saline with Tween-80
[14] = dose: 100.0 mg/kg/injection, schedule: Q01DX005 (ip), vehicle: saline with Tween-80
[15] = dose: 200.0 mg/kg/injection, schedule: Q01DX005 (ip), vehicle: saline with Tween-80
[16] = dose: 100.0 mg/kg/injection, schedule: Q04DX003 (ip), vehicle: saline
[17] = dose: 200.0 mg/kg/injection, schedule: Q04DX003 (ip), vehicle: saline

## C[N+]1=C(c2ccc(Br)cc2)OCC1(C)C
dose: 25.0 mg/kg/injection, schedule: Q01DX009 (ip), vehicle: other
  T/C: 104 % of control
dose: 50.0 mg/kg/injection, schedule: Q01DX009 (ip), vehicle: other
  T/C: 101 % of control
dose: 100.0 mg/kg/injection, schedule: Q01DX009 (ip), vehicle: other
  T/C: 97 % of control
dose: 200.0 mg/kg/injection, schedule: Q01DX009 (ip), vehicle: other
  T/C: 101 % of control
dose: 400.0 mg/kg/injection, schedule: Q01DX009 (ip), vehicle: other
  T/C: 101 % of control

## COC(=O)C(C#N)=C(SC)SC
[1]
  T/C: 112 % of control
[2]
  T/C: 116 % of control
[3]
  T/C: 103 % of control and 91 % of control

## CC1CN1C(=O)Nc1cccc(Cl)c1 (stereo not given)
[4]
  T/C: 100 % of control
[5]
  T/C: 102 % of control

## CC(C(=O)O)c1ccc(C(=O)c2cccs2)cc1 (stereo not given)
[3]
  T/C: 97 % of control
[6]
  T/C: 97 % of control
[7]
  T/C: 97 % of control

## COc1ccc(/C=C2/C(=O)ON=C2C)cc1OC
dose: 60.0 mg/kg/injection, schedule: Q01DX005 (ip), vehicle: saline with Tween-80
  T/C: 99 % of control
dose: 120.0 mg/kg/injection, schedule: Q01DX005 (ip), vehicle: saline with Tween-80
  T/C: 96 % of control
dose: 240.0 mg/kg/injection, schedule: Q01DX005 (ip), vehicle: saline with Tween-80
  T/C: 96 % of control

## COc1cccc2c1C(=O)c1c(O)c3c(c(O)c1C2=O)C[C@@](O)(C(C)=O)C[C@@H]3OC1CC(N2CCC(OC)CC2)C(O)C(C)O1 (stereo not given in full)
dose: 0.39 mg/kg/injection, schedule: Q04DX003 (ip), vehicle: water
  T/C: 114 % of control
dose: 0.78 mg/kg/injection, schedule: Q04DX003 (ip), vehicle: water
  T/C: 104 % of control
dose: 1.56 mg/kg/injection, schedule: Q04DX003 (ip), vehicle: water
  T/C: 111 % of control and 114 % of control
dose: 6.25 mg/kg/injection, schedule: Q04DX003 (ip), vehicle: water
  T/C: 181 % of control and 217 % of control
dose: 12.5 mg/kg/injection, schedule: Q04DX003 (ip), vehicle: water
  T/C: 118 % of control

## CC(C)(CO)CN1CCCCC1
[8]
  T/C: 100 % of control
dose: 100.0 mg/kg/injection, schedule: Q04DX003 (ip), vehicle: saline with Tween-80
  T/C: 100 % of control
[9]
  T/C: 100 % of control

## C[S+](C)CCC[S+](C)C
[4]
  T/C: 105 % of control
[5]
  T/C: 99 % of control
dose: 200.0 mg/kg/injection, schedule: Q01DX009 (ip), vehicle: saline
  T/C: 105 % of control

## CCOC(=O)c1ccc(NC(=O)Nc2cnccn2)cc1
[1]
  T/C: 92 % of control
[2]
  T/C: 93 % of control
[3]
  T/C: 86 % of control and 91 % of control
[6]
  T/C: 95 % of control
[7]
  T/C: 90 % of control

## N#CC1=C(N)Oc2c(c(-c3ccccc3)nn2-c2ccccc2)C1c1ccccc1 (stereo not given)
[10]
  T/C: 100 % of control
[11]
  T/C: 105 % of control
[12]
  T/C: 100 % of control

## Cc1nc(Nc2ccccc2)c2c(C)c[nH]c2n1
dose: 50.0 mg/kg/injection, schedule: Q01DX005 (ip), vehicle: Klucel (hydroxypropylcellulose) (HPC)
  T/C: 100 % of control
dose: 100.0 mg/kg/injection, schedule: Q01DX005 (ip), vehicle: Klucel (hydroxypropylcellulose) (HPC)
  T/C: 94 % of control

## Cc1ccc(S(=O)(=O)SSN2CCOCC2)cc1
[13]
  T/C: 103 % of control
[14]
  T/C: 100 % of control
[15]
  T/C: 100 % of control

## CCC[CH2][Sn]([CH2]CCC)([O]C(=O)/C=C/c1ccccc1)[O]C(=O)/C=C/c1ccccc1
dose: 1.56 mg/kg/injection, schedule: Q04DX003 (ip), vehicle: DMSO
  T/C: 87 % of control
dose: 3.12 mg/kg/injection, schedule: Q04DX003 (ip), vehicle: DMSO
  T/C: 89 % of control
dose: 6.25 mg/kg/injection, schedule: Q04DX003 (ip), vehicle: DMSO
  T/C: 89 % of control
dose: 12.5 mg/kg/injection, schedule: Q04DX003 (ip), vehicle: saline with Tween-80
  T/C: 117 % of control

## O=C(CC(=O)N1CCN(c2ccccn2)CC1)N1CCN(c2ccccn2)CC1
[4]
  T/C: 101 % of control
[5]
  T/C: 102 % of control

## CC(=O)Oc1cccc2c1C(=O)c1c(OC(C)=O)cccc1C2=O
dose: 1.56 mg/kg/injection, schedule: Q04DX003 (ip), vehicle: Klucel (hydroxypropylcellulose) (HPC)
  T/C: 99 % of control and 89 % of control
dose: 3.12 mg/kg/injection, schedule: Q04DX003 (ip), vehicle: Klucel (hydroxypropylcellulose) (HPC)
  T/C: 97 % of control
dose: 3.13 mg/kg/injection, schedule: Q04DX003 (ip), vehicle: Klucel (hydroxypropylcellulose) (HPC)
  T/C: 107 % of control
dose: 6.25 mg/kg/injection, schedule: Q04DX003 (ip), vehicle: Klucel (hydroxypropylcellulose) (HPC)
  T/C: 99 % of control and 97 % of control
dose: 12.5 mg/kg/injection, schedule: Q04DX003 (ip), vehicle: Klucel (hydroxypropylcellulose) (HPC)
  T/C: 99 % of control and 92 % of control
[10]
  T/C: 87 % of control
[12]
  T/C: 87 % of control
dose: 400.0 mg/kg/injection, schedule: Q01DX009 (ip), vehicle: Klucel (hydroxypropylcellulose) (HPC)
  T/C: 96 % of control

## Cc1cc(=O)oc2cc(OC(=O)N(C)C)c(Cl)cc12
[3]
  T/C: 100 % of control
[6]
  T/C: 101 % of control
[7]
  T/C: 101 % of control

## COc1cc(C=Nc2cc(Cl)ccc2-n2ccnc2C)ccc1N(CCCl)CCCl
[8]
  T/C: 222 % of control
[9]
  T/C: 88 % of control

## COc1ccc(C2CC(=O)N(c3cccc(C)n3)C(=O)C2)cc1
[16]
  T/C: 100 % of control
[17]
  T/C: 100 % of control
dose: 400.0 mg/kg/injection, schedule: Q04DX003 (ip), vehicle: saline
  T/C: 108 % of control

## Cc1cc(C(C)(CC(C)C)c2ccc(O)c(C)c2)ccc1O
[2]
  T/C: 116 % of control
[3]
  T/C: 98 % of control

## Cc1ccc(S(=O)(=O)Oc2ccc3sc4cccc(NCCN(C)C)c4c(=O)c3c2)cc1
dose: 12.5 mg/kg/injection, schedule: Q01DX005 (ip), vehicle: saline with Tween-80
  T/C: 104 % of control
dose: 25.0 mg/kg/injection, schedule: Q01DX005 (ip), vehicle: saline with Tween-80
  T/C: 93 % of control
[13]
  T/C: 90 % of control and 96 % of control
[14]
  T/C: 92 % of control and 94 % of control
[15]
  T/C: 92 % of control
dose: 400.0 mg/kg/injection, schedule: Q01DX005 (ip), vehicle: saline with Tween-80
  T/C: 94 % of control

## O=C(O)C(=O)c1ccccc1
dose: 50.0 mg/kg/injection, schedule: Q04DX003 (ip), vehicle: saline
  T/C: 100 % of control
[16]
  T/C: 105 % of control
[17]
  T/C: 100 % of control

## CC(=O)O.[Pb]
dose: 25.0 mg/kg/injection, schedule: Q04DX003 (ip), vehicle: saline with Tween-80
  T/C: 100 % of control
[8]
  T/C: 100 % of control
[16]
  T/C: 91 % of control

## [Cu+2].[O-]/C(=N\N=C\c1ccccn1)c1ccc(Cl)cc1.[O-]/C(=N\N=C\c1ccccn1)c1ccc(Cl)cc1
dose: 50.0 mg/kg/injection, schedule: Q04DX002 (ip), vehicle: saline with Tween-80
  T/C: 90 % of control
dose: 100.0 mg/kg/injection, schedule: Q04DX002 (ip), vehicle: saline with Tween-80
  T/C: 93 % of control
dose: 200.0 mg/kg/injection, schedule: Q04DX002 (ip), vehicle: saline with Tween-80
  T/C: 90 % of control

## CC(=O)N=c1nc(N)nc2n(O)cc(-c3ccccc3)nc1-2
dose: 31.25 mg/kg/injection, schedule: Q01DX009 (ip), vehicle: saline with Tween-80
  T/C: 113 % of control
dose: 62.5 mg/kg/injection, schedule: Q01DX009 (ip), vehicle: saline with Tween-80
  T/C: 99 % of control
dose: 125.0 mg/kg/injection, schedule: Q01DX009 (ip), vehicle: saline with Tween-80
  T/C: 97 % of control

## O=C1C2=C(Nc3ccccc3N2)OC1c1ccccc1Cl (stereo not given)
dose: 60.0 mg/kg/injection, schedule: Q01DX005 (ip), vehicle: Klucel (hydroxypropylcellulose) (HPC)
  T/C: 97 % of control
dose: 120.0 mg/kg/injection, schedule: Q01DX005 (ip), vehicle: Klucel (hydroxypropylcellulose) (HPC)
  T/C: 97 % of control

## CCCc1c(-n2[nH]c(=O)n(-c3ccccc3)c2=O)c(=O)n(C)c(=O)n1C
[10]
  T/C: 110 % of control
[11]
  T/C: 105 % of control
[12]
  T/C: 95 % of control

## O=C(O)C1C=CC2OC2C1C(=O)O (stereo not given)
dose: 100.0 mg/kg/injection, schedule: Q01DX001 (ip), vehicle: Klucel (hydroxypropylcellulose) (HPC)
  T/C: 87 % of control
dose: 200.0 mg/kg/injection, schedule: Q01DX001 (ip), vehicle: Klucel (hydroxypropylcellulose) (HPC)
  T/C: 92 % of control
dose: 400.0 mg/kg/injection, schedule: Q01DX001 (ip), vehicle: Klucel (hydroxypropylcellulose) (HPC)
  T/C: 93 % of control
